Key:
DGKα = DGKα (Homo sapiens (Human), UniProt P23743); assay: Biochemical DGK IC50 assay, DGKα ADP-Glo assay; conditions: 7.5 nM enzyme, 140 μM ATP, 80 μM DAG
Method in brief: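 ADP-Glo read-out with full-length DGKα on DAG/PS lipid micelle substrate in 25 mM HEPES pH 7.0, 0.5 mM EDTA, 160 mM octyl β-D-glucopyranoside. Compound final concentrations spanned 1.55˜10000 nM or 23.3˜150000 nM.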

DGKζ = DGKζ (Homo sapiens (Human), UniProt Q13574); assay: Biochemical DGK IC50 assay, DGKζ ADP-Glo assay; conditions: 0.5 nM enzyme, 140 μM ATP, 80 μM DAG; read-out: DGKζ ADP-Glo assay IC50
DGKζ, sequence (Q13574 other isoform, or with tags, fused parts or gaps): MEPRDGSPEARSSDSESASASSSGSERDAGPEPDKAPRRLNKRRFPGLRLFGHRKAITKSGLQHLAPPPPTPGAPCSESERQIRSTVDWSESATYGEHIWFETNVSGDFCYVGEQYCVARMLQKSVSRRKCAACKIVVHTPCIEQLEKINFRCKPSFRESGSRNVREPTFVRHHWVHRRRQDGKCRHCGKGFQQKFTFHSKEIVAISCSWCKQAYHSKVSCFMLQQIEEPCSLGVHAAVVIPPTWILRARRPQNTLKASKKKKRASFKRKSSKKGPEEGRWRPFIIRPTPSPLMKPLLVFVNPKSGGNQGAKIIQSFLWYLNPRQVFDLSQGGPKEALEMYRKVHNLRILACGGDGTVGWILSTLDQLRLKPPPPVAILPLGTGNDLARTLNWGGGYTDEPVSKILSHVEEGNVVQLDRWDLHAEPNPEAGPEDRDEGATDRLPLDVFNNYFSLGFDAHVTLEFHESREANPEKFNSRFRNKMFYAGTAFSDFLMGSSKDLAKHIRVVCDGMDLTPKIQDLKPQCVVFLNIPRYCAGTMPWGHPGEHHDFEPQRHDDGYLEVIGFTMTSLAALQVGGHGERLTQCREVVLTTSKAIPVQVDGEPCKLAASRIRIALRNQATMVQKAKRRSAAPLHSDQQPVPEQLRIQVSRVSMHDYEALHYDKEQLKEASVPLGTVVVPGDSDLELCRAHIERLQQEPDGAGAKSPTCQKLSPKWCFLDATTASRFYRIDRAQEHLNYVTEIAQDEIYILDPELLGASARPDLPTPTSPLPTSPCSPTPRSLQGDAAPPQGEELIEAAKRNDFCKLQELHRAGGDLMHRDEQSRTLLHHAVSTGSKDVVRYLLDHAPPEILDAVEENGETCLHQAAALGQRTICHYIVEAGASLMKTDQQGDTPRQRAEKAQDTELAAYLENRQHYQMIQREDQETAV
Method in brief: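 Full-length human DGKζ, His-TEV tagged and purified from baculovirus-infected Sf9 cells, assayed by ADP-Glo with DAG/PS lipid micelle substrate prepared in 25 mM HEPES pH 7.0 with octyl glucoside. Final compound concentrations spanned 1.55–10000 nM or 23.3–150000 nM.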

DGKα, sequence (P23743 whole entry): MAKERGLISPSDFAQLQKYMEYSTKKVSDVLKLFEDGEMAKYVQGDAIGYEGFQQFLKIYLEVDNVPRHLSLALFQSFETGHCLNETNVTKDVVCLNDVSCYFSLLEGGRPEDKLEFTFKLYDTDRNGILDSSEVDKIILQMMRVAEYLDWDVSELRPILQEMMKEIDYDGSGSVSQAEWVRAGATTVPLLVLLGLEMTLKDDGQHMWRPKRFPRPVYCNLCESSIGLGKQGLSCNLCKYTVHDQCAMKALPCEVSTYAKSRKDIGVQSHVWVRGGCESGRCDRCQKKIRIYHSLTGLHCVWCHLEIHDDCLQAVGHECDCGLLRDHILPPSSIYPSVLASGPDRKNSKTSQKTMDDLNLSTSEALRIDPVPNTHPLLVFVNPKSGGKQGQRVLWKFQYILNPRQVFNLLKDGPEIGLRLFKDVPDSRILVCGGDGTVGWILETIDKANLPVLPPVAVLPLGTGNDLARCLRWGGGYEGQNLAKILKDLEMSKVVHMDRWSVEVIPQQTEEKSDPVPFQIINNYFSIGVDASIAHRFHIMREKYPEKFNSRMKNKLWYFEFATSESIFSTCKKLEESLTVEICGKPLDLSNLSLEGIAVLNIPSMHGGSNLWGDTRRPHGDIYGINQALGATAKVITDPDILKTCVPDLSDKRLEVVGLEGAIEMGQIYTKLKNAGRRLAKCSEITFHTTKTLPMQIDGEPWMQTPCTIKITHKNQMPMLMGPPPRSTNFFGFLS

Compound	IC50 (DGKα) [nM]	IC50 (DGKζ) [nM]
CC(c1ccc2nccnc2c1)N1C[C@H](CC#N)N(c2cc(=O)n(C)c3cn(CC#N)nc23)C[C@H]1C (stereo partly drawn) [Compound A158, 2-((2S,5R)-1-(2-(cyanomethyl)-4-methyl-5-oxo-4,5-dihydro-2H-pyrazolo[4,3-b]pyridin-7-yl)-5-methyl-4-(1-(quinoxalin-6-yl)ethyl)piperazin-2-yl)acetonitrile]	> 10000	381
CC[C@@H]1CN(c2cc(=O)[nH]c3c(C)n(CC#N)nc23)[C@@H](C)CN1C(C)c1ccc2nccnc2c1 (stereo partly shown) [Compound A264]	> 10000	215
CC[C@H]1CN(C(C)c2ccc3nccnc3c2)[C@H](C)CN1c1cc(=O)n(C)c2cn(CC#N)nc12 (single isomer, unassigned) [Compound A98a]	1060	15
CC(c1ccc(F)cc1C1(O)COC1)N1C[C@H](C)N(c2cc(=O)n(C)c3cn(CC#N)nc23)C[C@H]1C (stereo partly drawn) [Compound A271, 2-(7-((2S,5R)-4-(1-(4-fluoro-2-(3-hydroxyoxetan-3-yl)phenyl)ethyl)-2,5-dimethylpiperazin-1-yl)-4-methyl-5-oxo-4,5-dihydro-2H-pyrazolo[4,3-b]pyridin-2-yl)acetonitrile]	> 10000	> 10000
CC#CCn1cc2c(n1)c(N1C[C@@H](C)N(C(C)c3ccc4c(c3)OC(F)(F)O4)C[C@@H]1C)cc(=O)n2C (stereo partly shown) [Compound A391]	1180	1650
CC[C@H]1CN(C(C)c2ccc(F)cc2Br)[C@H](CC)CN1c1cc(=O)n(C)c2cn(CC#N)nc12 (stereo partly drawn) [Compound A111, 2-(7-((2S,5R)-4-(1-(2-bromo-4-fluorophenyl)ethyl)-2,5-diethylpiperazin-1-yl)-4-methyl-5-oxo-4,5-dihydro-2H-pyrazolo[4,3-b]pyridin-2-yl)acetonitrile]	> 10000	96
CC(c1ccc2nccnc2c1)N1C[C@H](C)N(c2c(F)c(=O)n(C)c3cn(CC#N)nc23)C[C@H]1C (stereo partly drawn) [Compound A168, 2-(7-((2S,5R)-2,5-dimethyl-4-(1-(quinoxalin-6-yl)ethyl)piperazin-1-yl)-6-fluoro-4-methyl-5-oxo-4,5-dihydro-2H-pyrazolo[4,3-b]pyridin-2-yl)acetonitrile]	6080	28
CC[C@H]1CN(C(C)c2ccccc2)[C@H](CC)CN1c1cc(=O)n(C)c2cn(CC#N)nc12 (stereo partly shown) [Compound A89]	4.3	296
CC[C@H]1CN(C(C)c2cnc3c(n2)CCCC3)[C@H](CC)CN1c1cc(=O)n(C)c2cn(CC#N)nc12 (single isomer, unassigned) [Compound A357b]	646	12
CC[C@H]1CN(C(C)c2ccc(CN3CCC(F)(F)CC3)nc2)[C@H](CC)CN1c1cc(=O)n(C)c2cn(CC#N)nc12 (single isomer, unassigned) [Compound A381b]	2090	2330
CC[C@@H]1CN(c2cc(=O)n(C)c3cn(CC#N)nc23)[C@@H](C)CN1C(C)c1ccc(F)cc1OC (stereo partly drawn) [Compound A137, 2-(7-((2S,5R)-5-ethyl-4-(1-(4-fluoro-2-methoxyphenyl)ethyl)-2-methylpiperazin-1-yl)-4-methyl-5-oxo-4,5-dihydro-2H-pyrazolo[4,3-b]pyridin-2-yl)acetonitrile]	> 10000	106

Continued, values first:

IC50 (DGKα) [nM]	IC50 (DGKζ) [nM]	Compound
32	7.6	CC[C@H]1CN(C(C)c2cnc3ccccc3n2)[C@H](CC)CN1c1cc(=O)n(C)c2cn(CC#N)nc12 (single isomer, unassigned) [Compound A155b]
294	571	CC[C@H]1CN(C(C)c2ccc(OCC3COC3)cc2)[C@H](CC)CN1c1cc(=O)n(C)c2cn(CC#N)nc12 (stereo partly shown) [Compound A379]
> 10000	307	CC(c1ccc(F)cc1C(C)(F)F)N1C[C@H](C)N(c2cc(=O)n(C)c3cn(CC#N)nc23)C[C@H]1C (stereo partly drawn) [Compound A254, 2-(7-((2S,5R)-4-(1-(2-(1,1-difluoroethyl)-4-fluorophenyl)ethyl)-2,5-dimethylpiperazin-1-yl)-4-methyl-5-oxo-4,5-dihydro-2H-pyrazolo[4,3-b]pyridin-2-yl)acetonitrile]
> 150000	19	CC[C@H]1CN(C(C)c2ccc(F)cc2C(C)OC)[C@H](CC)CN1c1cc(=O)n(C)c2cn(CC#N)nc12 (stereo partly drawn) [Compound A327, 2-(7-((2S,5R)-2,5-diethyl-4-(1-(4-fluoro-2-(1-methoxyethyl)phenyl)ethyl)piperazin-1-yl)-4-methyl-5-oxo-4,5-dihydro-2H-pyrazolo[4,3-b]pyridin-2-yl)acetonitrile]
> 150000	4020	CC(c1ccc2c(n1)OCCO2)N1C[C@H](C)N(c2cc(=O)n(C)c3cn(CC#N)nc23)C[C@H]1C (stereo partly drawn) [Compound A324, 2-(7-((2S,5R)-4-(1-(2,3-dihydro-[1,4]dioxino[2,3-b]pyridin-6-yl)ethyl)-2,5-dimethylpiperazin-1-yl)-4-methyl-5-oxo-4,5-dihydro-2H-pyrazolo[4,3-b]pyridin-2-yl)acetonitrile]
10500	6960	CC[C@H]1CN(C(C)c2ccc3nc(O)cnc3c2)[C@H](CC)CN1c1cc(=O)n(C)c2cn(CC#N)nc12 (single isomer, unassigned) [Compound A282b]
